Data: patent US7446199B2, “Compositions useful as inhibitors of protein kinases” (Vertex Pharmaceuticals Incorporated, priority 2003, dated 2008)

Columns and labels:
GSK-3β, (AA 1-420) = GSK-3β, (AA 1-420) (Homo sapiens, UniProt P49841); test: GSK-3 inhibition assay, coupled enzyme system; type: biochemical; settings: 20 μM ATP, 300 μM peptide, 20 nM GSK-3b, 30° C.; read-out: Ki values (GSK3)
Method in brief: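 Pyruvate kinase/lactate dehydrogenase-coupled NADH assay with 20 nM enzyme, 20 μM ATP and 300 μM peptide in HEPES pH 7.5, 1.5% DMSO, 30° C. Compound (0.002–30 μM, 12-point) preincubated 10 min before ATP start; rates over 10 min gave Ki.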

Aurora-2 = target: T1, Aurora-2 (Homo sapiens, UniProt O14965); test: Inhibition of AUR-2, coupled enzyme assay; type: biochemical; settings: 70 nM Aurora-2, 800 μM peptide LRRASLG, 30° C.
T1 construct: addition of 10 μL of Aurora-2 stock solution to give a final concentration of 70 nM
T1 sequence (O14965 1-403): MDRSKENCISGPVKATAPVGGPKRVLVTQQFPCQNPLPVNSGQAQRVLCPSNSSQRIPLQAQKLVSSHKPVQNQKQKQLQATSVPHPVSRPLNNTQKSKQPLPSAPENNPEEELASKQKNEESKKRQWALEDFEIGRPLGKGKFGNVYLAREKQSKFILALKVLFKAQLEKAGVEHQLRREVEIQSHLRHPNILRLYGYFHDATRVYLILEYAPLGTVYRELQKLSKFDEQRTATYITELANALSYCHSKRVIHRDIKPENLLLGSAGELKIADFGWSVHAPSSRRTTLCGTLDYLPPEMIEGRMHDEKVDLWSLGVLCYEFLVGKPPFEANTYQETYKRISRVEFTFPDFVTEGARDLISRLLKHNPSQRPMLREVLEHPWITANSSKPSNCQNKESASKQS
Procedure: Compounds are screened in the following manner for their ability to inhibit Aurora-2 using a standard coupled enzyme assay (Fox et al. (1998) Protein Sci 7, 2249). To an assay stock buffer solution containing 0.1M HEPES 7.5, 10 mM MgCl2, 1 mM DTT, 25 mM NaCl, 2.5 mM phosphoenolpyruvate, […], […], […], and 800 μM peptide (LRRASLG, American Peptide, Sunnyvale, Calif.) is added a DMSO solution of a compound of the present invention to a final concentration of 30 μM. The resulting mixture is incubated at 30° C. for 10 min. The reaction was initiated by the addition of 10 μL of Aurora-2 stock solution to give a final concentration of 70 nM in the assay. The rates of reaction are obtained by monitoring absorbance at 340 nm over a 5 minute read time at 30° C. using a BioRad Ultramark plate reader (Hercules, Calif.). The Ki values are determined from the rate data as a function of inhibitor concentration.

Chain of GSK-3β, (AA 1-420) (P49841 whole entry, the tested form may be a part): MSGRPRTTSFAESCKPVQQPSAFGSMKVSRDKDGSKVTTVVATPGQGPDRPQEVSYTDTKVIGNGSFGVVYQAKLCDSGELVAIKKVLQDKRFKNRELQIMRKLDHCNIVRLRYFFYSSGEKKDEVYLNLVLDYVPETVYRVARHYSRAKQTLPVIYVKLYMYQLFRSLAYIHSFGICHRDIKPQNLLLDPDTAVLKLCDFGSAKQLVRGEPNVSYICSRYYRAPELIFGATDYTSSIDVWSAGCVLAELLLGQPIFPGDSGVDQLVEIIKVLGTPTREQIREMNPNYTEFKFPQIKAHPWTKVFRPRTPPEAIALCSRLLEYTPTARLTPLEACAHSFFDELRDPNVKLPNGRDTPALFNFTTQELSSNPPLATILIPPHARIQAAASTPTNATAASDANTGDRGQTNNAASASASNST

Compound	Ki (GSK-3β, (AA 1-420)) [nM]	Ki (Aurora-2) [nM]
CC(=O)Nc1cccc(-c2cnc3[nH]cc(-c4oncc4-c4cccc(F)c4F)c3c2)c1 [Compound 65, N-(3-{3-[4-(2,3-Difluoro-phenyl)-isoxazol-5-yl]-1H-pyrrolo[2,3-b]pyridin-5-yl}-phenyl)-acetamide]	200 to 1000	< 200
Fc1cccc(-c2cnoc2-c2c[nH]c3ncc(-c4ccc(N5CCNCC5)cc4)cc23)c1F [Compound 68, 3-[4-(2,3-Difluoro-phenyl)-isoxazol-5-yl]-5-(4-piperazin-1-yl-phenyl)-1H-pyrrolo[2,3-b]pyridine]	< 200	< 200
CN1CCN(c2ccc(-c3cnc4[nH]cc(-c5oncc5-c5cccc(F)c5F)c4c3)cc2)CC1 [Compound 70, 3-[4-(2,3-Difluoro-phenyl)-isoxazol-5-yl]-5-[4-(4-methyl-piperazin-1-yl)-phenyl]-1H-pyrrolo[2,3-b]pyridine methanesulfonate]	< 200	< 200
CN1CCN(c2ccc(-c3cnc4[nH]cc(-c5oncc5-c5cccc(F)c5F)c4c3)cn2)CC1 [Compound 71, 3-[4-(2,3-Difluoro-phenyl)-isoxazol-5-yl]-5-[6-(4-methyl-piperazin-1-yl)-pyridin-3-yl]-1H-pyrrolo[2,3-b]pyridine]	200 to 1000	< 200
Fc1cccc(-c2cnoc2-c2c[nH]c3ncc(-c4ncccn4)cc23)c1F [Compound 75, 3-[4-(2,3-Difluoro-phenyl)-isoxazol-5-yl]-5-pyrimidin-2-yl-1H-pyrrolo[2,3-b]pyridine]	1000 to 12500	200 to 1000
Fc1cccc(-c2cnoc2-c2c[nH]c3ncc(-c4c[nH]cn4)cc23)c1F [Compound 76, 3-[4-(2,3-Difluoro-phenyl)-isoxazol-5-yl]-5-(3H-imidazol-4-yl)-1H-pyrrolo[2,3-b]pyridine]	200 to 1000	< 200
CN(C)Cc1ccnc(-c2cnc3[nH]cc(-c4oncc4-c4cccc(F)c4F)c3c2)c1 [Compound 82, (2-{3-[4-(2,3-Difluoro-phenyl)-isoxazol-5-yl]-1H-pyrrolo[2,3-b]pyridin-5-yl}-pyridin-4-ylmethyl)-dimethyl-amine]	< 200	200 to 1000
Nc1ccnc(-c2cnc3[nH]cc(-c4oncc4-c4cccc(F)c4F)c3c2)c1 [Compound 83, 2-{3-[4-(2,3-Difluoro-phenyl)-isoxazol-5-yl]-1H-pyrrolo [2,3-b]pyridin-5-yl}-pyridin-4-ylamine]	200 to 1000	200 to 1000
Nc1cccc(-c2cnc3[nH]cc(-c4oncc4-c4cccc(F)c4F)c3c2)c1 [Compound 86, 3-{3-[4-(2,3-Difluoro-phenyl)-isoxazol-5-yl]-1H-pyrrolo [2,3-b]pyridin-5-yl}-phenylamine]	< 200	< 200
Oc1cccc(-c2cnc3[nH]cc(-c4oncc4-c4cccc(F)c4F)c3c2)c1 [Compound 87, 3-{3-[4-(2,3-Difluoro-phenyl)-isoxazol-5-yl]-1H-pyrrolo [2,3-b]pyridin-5-yl}-phenol]	1000 to 12500	< 200

Further lines, results first:

Ki (GSK-3β, (AA 1-420)) [nM]	Ki (Aurora-2) [nM]	Compound
< 200	< 200	Nc1ccc(-c2cnc3[nH]cc(-c4oncc4-c4cccc(F)c4F)c3c2)cc1 [Compound 90, 4-{3-[4-(2,3-Difluoro-phenyl)-isoxazol-5-yl]-1H-pyrrolo [2,3-b]pyridin-5-yl}-phenylamine]
1000 to 12500	200 to 1000	CN(C)Cc1ccc(-c2cnc3[nH]cc(-c4oncc4-c4cccc(F)c4F)c3c2)cc1 [Compound 91, (4-{3-[4-(2,3-Difluoro-phenyl)-isoxazol-5-yl]-1H-pyrrolo[2,3-b]pyridin-5-yl}-benzyl)-dimethyl-amine]
200 to 1000	< 200	Fc1cccc(-c2cnoc2-c2c[nH]c3ncc(-c4ccc(CN5CCOCC5)cc4)cc23)c1F [Compound 92, 3-[4-(2,3-Difluoro-phenyl)-isoxazol-5-yl]-5-(4-morpholin-4-ylmethyl-phenyl)-1H-pyrrolo[2,3-b]pyridine]
200 to 1000	< 200	Fc1cccc(-c2cnoc2-c2c[nH]c3ncc(-c4ccc(CN5CCCC5)cc4)cc23)c1F [Compound 93, 3-[4-(2,3-Difluoro-phenyl)-isoxazol-5-yl]-5-(4-pyrrolidin-1-ylmethyl-phenyl)-1H-pyrrolo[2,3-b]pyridine]
200 to 1000	< 200	CN1CCN(Cc2ccc(-c3cnc4[nH]cc(-c5oncc5-c5cccc(F)c5F)c4c3)cc2)CC1 [Compound 94, 3-[4-(2,3-Difluoro-phenyl)-isoxazol-5-yl]-5-[4-(4-methyl-piperazin-1-ylmethyl)-phenyl]-1H-pyrrolo[2,3-b]pyridine]
1000 to 12500	< 200	CC(=O)Nc1ccc(-c2cnc3[nH]cc(-c4oncc4-c4cccc(F)c4F)c3c2)cc1 [Compound 95, N-(4-{3-[4-(2,3-Difluoro-phenyl)-isoxazol-5-yl]-1H-pyrrolo[2,3-b]pyridin-5-yl}-phenyl)-acetamide]
200 to 1000	< 200	COc1cncc(-c2cnc3[nH]cc(-c4oncc4-c4cccc(F)c4F)c3c2)c1 [Compound 96, 3-[4-(2,3-Difluoro-phenyl)-isoxazol-5-yl]-5-(5-methoxy-pyridin-3-yl)-1H-pyrrolo[2,3-b]pyridine]
< 200	< 200	CS(=O)(=O)Nc1ccc(-c2cnc3[nH]cc(-c4oncc4-c4cccc(F)c4F)c3c2)cc1 [Compound 98, N-(4-{3-[4-(2,3-Difluoro-phenyl)-isoxazol-5-yl]-1H-pyrrolo[2,3-b]pyridin-5-yl}-phenyl)-methane sulfonamide]
< 200	< 200	Clc1cccc(-c2cnoc2-c2c[nH]c3ncc(-c4cccnc4)cc23)c1Cl [Compound 99, 3-[4-(2,3-Dichloro-phenyl)-isoxazol-5-yl]-5-pyridin-3-yl-1H-pyrrolo[2,3-b]pyridine]
200 to 1000	200 to 1000	Cc1noc(-c2c[nH]c3ncccc23)c1-c1cccc(F)c1F [Compound 134, 3-[4-(2,3-Difluoro-phenyl)-3-methyl-isoxazol-5-yl]-1H-pyrrolo[2,3-b]pyridine]
200 to 1000	200 to 1000	O=c1[nH]ccc2c(-c3oncc3-c3cccc(F)c3F)c[nH]c12 [Compound 145, 3-[4-(2,3-Difluoro-phenyl)-isoxazol-5-yl]-1,6-dihydro-pyrrolo[2,3-c]pyridin-7-one]
